The source of these data is article PMC4710522, “A Novel Triazolopyridine-Based Spleen Tyrosine Kinase Inhibitor That Arrests Joint Inflammation” (PLoS ONE, 2016).

For test [1], the system named is rat collagen-induced arthritis model. The test is described as follows: rat collagen-induced arthritis (CIA) model, paw swelling. In kind it is in vivo. Conditions: for inhibition of paw swelling: 8 days. Here is the method: Female Lewis rats (150 – 170g; Charles River Laboratories) were house standard shoebox cages, fed Harlan-Tekald diet and water ad libitum and maintained on a 12h light/dark cycle. For induction of arthritis rats were anesthetized with isofluorane and their entire dorsal area shaved. Rats were injected (intradermal) with 100 μl of equal volumes of collagen (Chrondrex, Redmond, WA) and IFA (Sigma Chemicals, St. Louis, MO) emulsion in 10 sites across the dorsal region. At disease onset 11 days following immunization animals were randomized into groups based on their ankle measurements and test article administration was initiated. Rats were dosed orally with vehicle (20% Captisol®), Indomethacin (Sigma Chemicals, St. Louis, MO, 2mg/kg) or CC-509 (15, 25mg/kg QD or 15mg/kg BID) in a dose volume of 5ml/kg. […] On the last day of the study animals were split into 2 cohorts and bleed twice via tail bleed under isofluorane anesthesia and a third terminal bleed following CO2 asphyxiation to obtain a time course of plasma compound exposure at 30minutes, 1, 2, 4, 8 and 24h after the last dose of CC-509.
For the TEL-Syk assay, the intensity values for the 700 and 800 channel were exported as text files in ActivityBase (IDBS, Guildford, UK) to derive the ratios that reflect kinase activity. For LAD2 experiments, enzyme activity values were exported as text files into ActivityBase to calculate “percent release” according to the formula: 100* supernatant OD405/ (supernatant OD405 + (pellet OD405*pellet dilution factor)). For the basophil and B-cells assays, flow cytometry data was exported from the FACS Array and processed using FloJo software package (TreeStar, Inc., Ashland, Oregon). For the JAK2 HEL and Ramos NFAT β-lactamase assays, the fluorescence values obtained at 460 nm and 530 nm were exported into ActivityBase to calculate response ratios. For the neutrophil, macrophage, KDR, and JAK1/3 assays, raw values were exported into ActivityBase to calculate percent inhibition. All IC50 calculations were generated using XLfit (IDBS, Guildford, UK) algorithm 205 within Excel. For PCA, the OD from the saline injected site was subtracted from the OD from the anti-DNP IgE injected site. Evans blue dye extravasation was expressed as mean ± SEM and % inhibition for the test article groups was normalized to the cromolyn positive control. For the CIA model paw measurements (left and right ankle diameter) were taken for each individual animal and averaged. The mean data from each group was plotted and either the AUC(day 11–18) or % inhibition on day 18 was calculated. Data is expressed as mean ± SEM of each group with n = 6–12. Statistical analysis was performed with Prism Graphpad using one-way ANOVA followed by Dunnett’s comparison using the vehicle group as the control or for measurements over time a 2 way ANOVA followed by a Dunnett’s multiple comparison test. Statistical significance was deemed as * = p<0.05, **p<0.01, ***p<0.001 and p<0.0001.

The target in test [2] is T1, ARK5_h (Homo sapiens, UniProt O60285).
T1 construct: purchased Life Technologies (Invitrogen) SelectScreen, Z'-LYTE / Adapta
T1 sequence (O60285 whole entry): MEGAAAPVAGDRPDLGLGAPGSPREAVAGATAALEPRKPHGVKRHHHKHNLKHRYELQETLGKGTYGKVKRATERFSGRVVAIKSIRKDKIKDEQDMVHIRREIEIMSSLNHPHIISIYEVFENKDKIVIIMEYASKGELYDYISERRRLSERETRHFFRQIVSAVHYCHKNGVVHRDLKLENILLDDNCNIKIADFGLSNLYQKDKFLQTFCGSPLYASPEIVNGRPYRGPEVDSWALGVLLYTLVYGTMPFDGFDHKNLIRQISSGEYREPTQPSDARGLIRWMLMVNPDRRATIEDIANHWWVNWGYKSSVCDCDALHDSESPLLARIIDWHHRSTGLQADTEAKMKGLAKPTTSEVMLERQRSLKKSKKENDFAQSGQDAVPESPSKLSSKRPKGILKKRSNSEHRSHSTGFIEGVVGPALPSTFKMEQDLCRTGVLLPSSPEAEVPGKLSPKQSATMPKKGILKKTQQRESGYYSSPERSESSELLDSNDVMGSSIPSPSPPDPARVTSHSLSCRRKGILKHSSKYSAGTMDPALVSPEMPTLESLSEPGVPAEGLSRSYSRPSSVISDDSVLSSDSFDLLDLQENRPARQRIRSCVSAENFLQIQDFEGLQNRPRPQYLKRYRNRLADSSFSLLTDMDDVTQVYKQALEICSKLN
In words: SelectScreen kinase assay. In kind it is biochemical. Conditions: KM ATP, read-out: % control. Here is the method:
(§1) Syk kinase mode of inhibition studies, including parameters described in Fig 1, were conducted on the LC3000 platform by Caliper Life Sciences (Hopkinton, MA) according to standard protocols developed by the supplier. […] Non-kinase enzyme assays and GPCR, ion channel, and transporter binding assays were run by CEREP (France). Non-GLP manual patch clamp hERG assays were run by ChanTest (Cleveland, Ohio). Vivid® Assay kits (Life Technologies) were used to measure the cytochrome P450 inhibition of the compound against CYP3A, CYP2C9, CYP2C19, CYP2D6, and CYP1A2, as described.
(§2) Kinase activity was measured using either the Z’-Lyte® or the Adapta® protocols as part of the SelectScreen™ profiling service offered at Life Technologies (Grand Island, NY). For the single point measurements (Part A), CC-509 was kept constant at 3 µM while ATP concentrations [ATP] used were at the KM for ATP (KM ATP) for that specific enyzme, at 10 or 100 µM ATP (10 ATP or 100 ATP, respectively), as indicated. Values expressed as percent control (% control) relative to DMSO-only wells (uninhibited, 100%).
(§3) Kinase activity was measured using either the Z’-Lyte® or the Adapta® protocols as part of the SelectScreen™ profiling service offered at Life Technologies (Grand Island, NY). […] Values expressed as percent control (% control) relative to DMSO-only wells (uninhibited, 100%).

The target in test [3] is T2, MARK2_h (Homo sapiens, UniProt Q7KZI7).
T2 construct: purchased Life Technologies (Invitrogen) SelectScreen, Z'-LYTE / Adapta
The test is described as follows: SelectScreen kinase assay. In kind it is biochemical. Conditions: KM ATP, read-out: % control. Here is the method:
as §1, §2, §3

For test [4], the target named is T3, p70S6K_h (Homo sapiens, UniProt P23443).
T3 construct: purchased Life Technologies (Invitrogen) SelectScreen, Z'-LYTE / Adapta
In words: SelectScreen kinase assay. In kind it is biochemical. Conditions: KM ATP, read-out: % control. Here is the method: as §1, §2, §3

Test [5] concerns the target T4, cSRC-N1_h (Homo sapiens, UniProt P12931).
T4 construct: purchased Life Technologies (Invitrogen) SelectScreen, Z'-LYTE / Adapta
In words: SelectScreen kinase assay. It is filed as biochemical. Conditions: KM ATP, read-out: % control. Here is the method:
as §1, §2, §3

In test [6] the target is T5, TrkC_h (Homo sapiens, UniProt Q16288).
T5 construct: purchased Life Technologies (Invitrogen) SelectScreen, Z'-LYTE / Adapta
The test is described as follows: SelectScreen kinase assay. It is filed as biochemical. Conditions: KM ATP, read-out: % control. Here is the method: as §1, §2, §3

Test [7] concerns the target T6, CHK2_h (Homo sapiens, UniProt O96017).
T6 construct: purchased Life Technologies (Invitrogen) SelectScreen, Z'-LYTE / Adapta
In words: SelectScreen kinase assay. It is filed as biochemical. Conditions: KM ATP, read-out: % control. Here is the method: as §1, §2, §3

The target of test [8] is T7, IKK1_h (Homo sapiens, UniProt O15111).
T7 construct: purchased Life Technologies (Invitrogen) SelectScreen, Z'-LYTE / Adapta
T7 sequence (O15111 whole entry): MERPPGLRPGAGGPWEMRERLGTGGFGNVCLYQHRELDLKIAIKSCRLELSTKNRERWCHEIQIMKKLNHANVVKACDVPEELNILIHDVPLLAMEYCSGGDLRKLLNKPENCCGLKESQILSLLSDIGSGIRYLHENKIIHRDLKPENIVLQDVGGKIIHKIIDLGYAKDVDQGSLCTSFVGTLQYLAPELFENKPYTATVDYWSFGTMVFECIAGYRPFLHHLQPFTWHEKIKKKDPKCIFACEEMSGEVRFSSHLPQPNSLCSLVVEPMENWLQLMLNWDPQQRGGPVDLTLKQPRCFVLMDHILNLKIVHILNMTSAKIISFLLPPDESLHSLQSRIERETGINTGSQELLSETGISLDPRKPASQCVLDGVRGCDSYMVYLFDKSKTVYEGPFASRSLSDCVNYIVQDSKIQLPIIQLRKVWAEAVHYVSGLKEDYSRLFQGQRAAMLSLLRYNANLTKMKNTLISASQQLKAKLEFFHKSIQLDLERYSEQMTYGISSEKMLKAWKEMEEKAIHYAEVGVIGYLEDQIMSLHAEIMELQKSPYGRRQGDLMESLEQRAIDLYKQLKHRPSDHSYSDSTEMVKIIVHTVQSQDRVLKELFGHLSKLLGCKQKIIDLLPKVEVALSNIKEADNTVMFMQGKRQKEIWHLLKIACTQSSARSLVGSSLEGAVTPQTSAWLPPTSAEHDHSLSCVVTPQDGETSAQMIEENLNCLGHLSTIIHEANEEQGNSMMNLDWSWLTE
In words: SelectScreen kinase assay. Conditions: KM ATP, read-out: % control. In kind it is biochemical. Here is the method:
as §1, §2, §3

For test [9], the target named is T8, MARK4_h (Homo sapiens, UniProt Q96L34).
T8 construct: purchased Life Technologies (Invitrogen) SelectScreen, Z'-LYTE / Adapta
In words: SelectScreen kinase assay. Conditions: KM ATP, read-out: % control. In kind it is biochemical. Here is the method: as §1, §2, §3

In test [10] the target is T9, Rsk4_h (Homo sapiens, UniProt Q9UK32).
T9 construct: purchased Life Technologies (Invitrogen) SelectScreen, Z'-LYTE / Adapta
T9 sequence (Q9UK32 whole entry): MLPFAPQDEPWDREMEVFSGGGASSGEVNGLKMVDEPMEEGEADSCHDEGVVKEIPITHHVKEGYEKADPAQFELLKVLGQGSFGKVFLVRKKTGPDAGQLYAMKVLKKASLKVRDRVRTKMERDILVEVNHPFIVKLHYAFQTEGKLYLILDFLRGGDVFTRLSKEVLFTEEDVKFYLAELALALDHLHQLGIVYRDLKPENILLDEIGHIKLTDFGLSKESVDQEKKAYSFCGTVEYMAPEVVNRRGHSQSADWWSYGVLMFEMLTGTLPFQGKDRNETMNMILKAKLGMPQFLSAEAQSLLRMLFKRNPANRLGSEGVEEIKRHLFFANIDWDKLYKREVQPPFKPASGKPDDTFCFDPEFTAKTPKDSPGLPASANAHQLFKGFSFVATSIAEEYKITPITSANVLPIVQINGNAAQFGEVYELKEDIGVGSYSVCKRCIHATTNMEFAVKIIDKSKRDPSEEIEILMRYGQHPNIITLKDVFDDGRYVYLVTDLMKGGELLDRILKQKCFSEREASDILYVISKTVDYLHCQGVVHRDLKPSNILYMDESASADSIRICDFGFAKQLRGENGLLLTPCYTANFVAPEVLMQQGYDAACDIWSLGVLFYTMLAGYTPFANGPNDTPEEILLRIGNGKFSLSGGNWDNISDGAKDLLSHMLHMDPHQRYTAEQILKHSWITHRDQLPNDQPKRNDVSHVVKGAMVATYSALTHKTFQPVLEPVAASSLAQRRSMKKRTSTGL
In words: SelectScreen kinase assay. In kind it is biochemical. Conditions: KM ATP, read-out: % control. Here is the method: as §1, §2, §3

Test [11] has as its target T10, ROCK-I_h (Homo sapiens, UniProt Q13464).
T10 construct: purchased Life Technologies (Invitrogen) SelectScreen, Z'-LYTE / Adapta
In words: SelectScreen kinase assay. In kind it is biochemical. Conditions: KM ATP, read-out: % control. Here is the method:
as §1, §2, §3

For test [12], the target named is T11, ErbB4_h (Homo sapiens, UniProt Q15303).
T11 construct: purchased Life Technologies (Invitrogen) SelectScreen, Z'-LYTE / Adapta
The test is described as follows: SelectScreen kinase assay. It is filed as biochemical. Conditions: KM ATP, read-out: % control. Here is the method: as §1, §2, §3

Test [13] has as its target T12, MST1_h (Homo sapiens, UniProt Q13043).
T12 construct: purchased Life Technologies (Invitrogen) SelectScreen, Z'-LYTE / Adapta
The test is described as follows: SelectScreen kinase assay. It is filed as biochemical. Conditions: KM ATP, read-out: % control. Here is the method:
as §1, §2, §3

The target of test [14] is T13, SRPK2_h (Homo sapiens, UniProt P78362).
T13 construct: purchased Life Technologies (Invitrogen) SelectScreen, Z'-LYTE / Adapta
In words: SelectScreen kinase assay. Conditions: KM ATP, read-out: % control. In kind it is biochemical. Here is the method:
as §1, §2, §3

Test [15] addresses T14, MINK_h (Homo sapiens, UniProt Q8N4C8).
T14 construct: purchased Life Technologies (Invitrogen) SelectScreen, Z'-LYTE / Adapta
The test is described as follows: SelectScreen kinase assay. In kind it is biochemical. Conditions: KM ATP, read-out: % control. Here is the method: as §1, §2, §3

For test [16], the target named is T15, BRK_h (Homo sapiens, UniProt Q13882).
T15 construct: purchased Life Technologies (Invitrogen) SelectScreen, Z'-LYTE / Adapta
In words: SelectScreen kinase assay. Conditions: KM ATP, read-out: % control. In kind it is biochemical. Here is the method:
as §1, §2, §3

Test [17] has as its target T16, PKB-gamma_h (Homo sapiens, UniProt Q9Y243).
T16 construct: purchased Life Technologies (Invitrogen) SelectScreen, Z'-LYTE / Adapta
In words: SelectScreen kinase assay. In kind it is biochemical. Conditions: KM ATP, read-out: % control. Here is the method: as §1, §2, §3

T14 sequence (Q8N4C8 whole entry): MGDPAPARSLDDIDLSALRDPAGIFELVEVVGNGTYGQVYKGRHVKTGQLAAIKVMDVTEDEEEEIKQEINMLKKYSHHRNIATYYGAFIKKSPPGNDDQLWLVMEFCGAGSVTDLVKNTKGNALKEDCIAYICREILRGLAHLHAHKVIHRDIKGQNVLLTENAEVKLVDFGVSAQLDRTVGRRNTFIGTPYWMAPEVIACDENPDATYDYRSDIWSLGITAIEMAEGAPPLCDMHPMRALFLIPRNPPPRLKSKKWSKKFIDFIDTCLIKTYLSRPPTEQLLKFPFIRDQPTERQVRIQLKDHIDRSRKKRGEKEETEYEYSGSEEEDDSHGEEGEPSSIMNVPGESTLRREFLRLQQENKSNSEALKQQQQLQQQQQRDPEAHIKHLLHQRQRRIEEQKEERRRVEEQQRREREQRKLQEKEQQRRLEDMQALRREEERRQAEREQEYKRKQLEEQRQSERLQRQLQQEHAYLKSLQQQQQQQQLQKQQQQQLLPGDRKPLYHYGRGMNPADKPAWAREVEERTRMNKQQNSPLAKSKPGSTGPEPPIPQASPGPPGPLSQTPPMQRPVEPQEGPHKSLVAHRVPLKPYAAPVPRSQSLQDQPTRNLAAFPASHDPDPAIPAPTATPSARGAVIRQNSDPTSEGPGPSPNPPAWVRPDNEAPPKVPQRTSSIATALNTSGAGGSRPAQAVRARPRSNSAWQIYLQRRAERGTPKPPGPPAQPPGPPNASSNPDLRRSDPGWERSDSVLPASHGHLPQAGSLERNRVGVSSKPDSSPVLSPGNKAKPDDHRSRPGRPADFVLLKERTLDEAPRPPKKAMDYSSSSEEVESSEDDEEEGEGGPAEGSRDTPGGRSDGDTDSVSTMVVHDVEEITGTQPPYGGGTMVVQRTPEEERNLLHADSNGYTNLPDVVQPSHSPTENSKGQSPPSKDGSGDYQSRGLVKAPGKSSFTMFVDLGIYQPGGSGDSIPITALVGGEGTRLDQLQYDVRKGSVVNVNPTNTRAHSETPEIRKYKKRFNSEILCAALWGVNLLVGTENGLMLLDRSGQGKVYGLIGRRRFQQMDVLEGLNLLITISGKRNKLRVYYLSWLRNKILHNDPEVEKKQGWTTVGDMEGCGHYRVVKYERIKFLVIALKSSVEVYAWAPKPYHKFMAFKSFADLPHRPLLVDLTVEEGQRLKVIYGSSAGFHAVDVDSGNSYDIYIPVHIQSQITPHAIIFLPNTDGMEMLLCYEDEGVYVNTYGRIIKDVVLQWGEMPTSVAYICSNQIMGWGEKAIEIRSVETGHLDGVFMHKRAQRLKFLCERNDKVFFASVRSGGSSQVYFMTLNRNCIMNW
T10 sequence (Q13464 whole entry): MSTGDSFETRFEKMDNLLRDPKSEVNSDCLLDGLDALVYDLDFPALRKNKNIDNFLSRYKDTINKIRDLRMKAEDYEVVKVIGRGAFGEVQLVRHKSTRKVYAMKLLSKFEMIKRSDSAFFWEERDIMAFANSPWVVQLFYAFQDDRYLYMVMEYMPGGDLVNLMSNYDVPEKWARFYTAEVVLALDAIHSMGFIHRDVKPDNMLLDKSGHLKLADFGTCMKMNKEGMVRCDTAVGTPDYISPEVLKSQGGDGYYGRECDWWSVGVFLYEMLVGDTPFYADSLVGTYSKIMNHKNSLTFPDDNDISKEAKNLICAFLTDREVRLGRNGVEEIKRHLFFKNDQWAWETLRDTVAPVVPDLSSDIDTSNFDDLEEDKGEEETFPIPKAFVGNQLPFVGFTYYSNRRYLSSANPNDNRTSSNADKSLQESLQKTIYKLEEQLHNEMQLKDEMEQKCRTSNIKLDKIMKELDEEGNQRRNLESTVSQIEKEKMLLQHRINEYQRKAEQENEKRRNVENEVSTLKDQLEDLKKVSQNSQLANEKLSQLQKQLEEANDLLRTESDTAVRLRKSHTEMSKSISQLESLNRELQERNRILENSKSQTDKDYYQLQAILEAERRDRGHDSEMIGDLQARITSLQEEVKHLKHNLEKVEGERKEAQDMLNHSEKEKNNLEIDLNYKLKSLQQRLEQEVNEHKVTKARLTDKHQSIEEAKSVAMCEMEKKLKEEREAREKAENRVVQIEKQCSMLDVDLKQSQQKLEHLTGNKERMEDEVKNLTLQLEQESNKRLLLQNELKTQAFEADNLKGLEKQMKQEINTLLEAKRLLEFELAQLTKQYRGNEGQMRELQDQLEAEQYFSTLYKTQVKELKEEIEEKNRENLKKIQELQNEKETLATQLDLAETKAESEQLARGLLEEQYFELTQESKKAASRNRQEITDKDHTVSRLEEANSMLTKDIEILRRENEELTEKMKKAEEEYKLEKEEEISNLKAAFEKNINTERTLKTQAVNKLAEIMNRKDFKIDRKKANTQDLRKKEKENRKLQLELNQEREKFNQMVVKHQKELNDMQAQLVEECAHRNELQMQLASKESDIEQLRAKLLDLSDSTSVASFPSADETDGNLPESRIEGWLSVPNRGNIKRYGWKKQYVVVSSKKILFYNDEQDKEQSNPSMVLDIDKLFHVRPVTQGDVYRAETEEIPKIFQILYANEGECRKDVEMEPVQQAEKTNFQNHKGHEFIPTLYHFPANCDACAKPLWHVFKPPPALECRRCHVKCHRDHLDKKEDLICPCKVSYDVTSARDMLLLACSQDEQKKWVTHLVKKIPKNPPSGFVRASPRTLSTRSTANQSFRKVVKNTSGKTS

For orientation: ED50 means the dose at which the effect has come halfway, by size or by number of responders. High values mean a need for a large dose, low ones an effect at a small dose. Regarding `c1cc(CC2CCOCC2)n2nc(Nc3ccc4c(NC5CCOCC5)n[nH]c4c3)nc2c1` [CC-509, [3-(2H-3,4,5,6-tetrahydropyran-4-ylamino)(1H-indazol-6-yl)][5-(2H-3,4,5,6-tetrahydropyran-4-ylmethyl)(2H-1,2,4-triazolo[1,5-a]pyridin-2-yl)]amine], the “inhibition of paw swelling” value in test [1] (15 mg/kg b.i.d. oral, p<0.001) was 72%; in [1] (15 mg/kg q.d. oral, not significant), 32%; in [1] (25 mg/kg q.d. oral, p<0.0001), 74%. This compound also had an ED50 in test [1] (rat CIA model) of about 10 mg/kg. The remaining activity at 3 µM in [2] was determined as 7%; in [3], 55%; in [4] it was 89%; in test [5], 58%; in [6], 25%; in test [7], 97%. In addition, the remaining activity at 3 µM in [8] amounted to 106%; in test [9], 33%; in test [10], 32%; in test [11], 70%; in test [12] it was 91%; in test [13] it was 65%. Besides, the remaining activity at 3 µM in test [14] amounted to 111%; in [15], 55%; in [16] it was 87%; in [17] it was 99%.
